Here are results for two compounds from patent publication US8114904B2, “Luminescence quenchers and fluorogenic probes for detection of reactive species” (Versitech Limited & Morningside Ventures Limited, priority 2008, dated 2012).

A short description of data set [1]: Emission spectra of the probe itself. Type of data set: physicochemical. Particulars: Hitachi F2500, 700 V. Here is the method: Compound 10 obtained in Example 4 was dissolved in DMF to a concentration of 10 mM, and then the solution was diluted to 10 μM by 0.1 M phosphate buffer (pH 7.4). The fluorescence spectrum of the 10 μM solution of Compound 10 was measured using a Hitachi F2500 fluorescence spectrometer and the photomultiplier voltage was 700 V. The slit width was 2.5 nm for both excitation and emission. The measurement was carried out at an excitation wavelength of 520 nm. The results shown in FIG. 1 indicate that Compound 10 itself is non-fluorescent.
Compound 12 obtained in Example 5 was dissolved in DMF to a concentration of 1 mM, and then the solution was diluted to 1 μM by 0.1 M phosphate buffer (pH 7.4). The fluorescence spectrum of the 1 μM solution of Compound 12 was measured using a Hitachi F2500 fluorescence spectrometer and the photomultiplier voltage was 700 V. The slit width was 2.5 nm for both excitation and emission. The measurement was carried out at an excitation wavelength of 515 nm. The results shown in FIG. 4 indicate that Compound 12 itself is non-fluorescent.
Compound 14 obtained in Example 6 was dissolved in DMF to a concentration of 1 mM, and then the solution was diluted to 1 μM by 0.1 M phosphate buffer (pH 7.4). The fluorescence spectrum of the 1 μM solution of Compound 14 was measured using a Hitachi F2500 fluorescence spectrometer and the photomultiplier voltage was 700 V. The slit width was 2.5 nm for both excitation and emission. The measurement was carried out at an excitation wavelength of 515 nm. The results shown in FIG. 6 indicate that Compound 14 itself is non-fluorescent.
Compound 30 obtained in Example 7 was dissolved in DMF to a concentration of 10 mM, and then the solution was diluted to 10 μM by 0.1 M phosphate buffer (pH 7.4). The fluorescence spectrum of the 10 μM solution of Compound 30 was measured using a Hitachi F7000 fluorescence spectrometer and the photomultiplier voltage was 900 V. The slit width was 2.5 nm for both excitation and emission. The measurement was carried out at an excitation wavelength of 520 nm.

Data set [2] in a line: Detection of peroxynitrite: fluorescence spectra after addition of peroxynitrite. As for the experimental part:
Compound 10 obtained in Example 4 was dissolved in DMF to a concentration of 10 mM, and then the solution was diluted to 10μM by 0.1 M potassium phosphate buffer (pH 7.4). Peroxynitrite solution in 0.1 M NaOH was prepared by the method of Keith and Powell (Keith, W. G. & Powell, R. E.; Kinetics of decomposition of peroxynitrous acid; J. Chem. Soc. A, 1969, 1, 90), and its concentration in the stock solutions used was estimated by using an extinction coefficient of 1670 cm^−1 (mol/L)^−1 at 302 nm (Hughes and Nicklin; The chemistry of pernitrites. Part I. Kinetics of decomposition of pernitrious acid; J. Chem. Soc. A, 1968, 2, 450-452). Peroxynitrite stock solution was added into the solution of Compound 10 to provide various final concentrations, like 0, 2, 6, 10, 20, 30, 50 100, and 200 μM. Fluorescence spectra of the solutions were measured after 5 minutes under the same conditions as mentioned above.
Compound 12 obtained in Example 5 was dissolved in DMF to a concentration of 1 mM, and then the solution was diluted to 1 μM by 0.1 M potassium phosphate buffer (pH 7.4). Peroxynitrite solution in 0.1 M NaOH was prepared by the method of Keith and Powell (Keith, W. G. & Powell, R. E.; Kinetics of decomposition of peroxynitrous acid; J. Chem. Soc. A, 1969, 1, 90), and its concentration in the stock solutions used was estimated by using an extinction coefficient of 1670 cm^−1 (mol/L)^−1 at 302 nm (Hughes and Nicklin; The chemistry of pernitrites. Part I. Kinetics of decomposition of pernitrious acid; J. Chem. Soc. A, 1968, 2, 450-452). Peroxynitrite stock solution was added into the solution of Compound 12 to provide various final concentrations, like 0, 1, 2, 3, 4, 5, 6, and 7 μM. Fluorescence spectra of the solutions were measured after 5 minutes under the same conditions as mentioned above.
Compound 30 obtained in Example 7 was dissolved in DMF to a concentration of 10 mM, and then the solution was diluted to 10 μM by 0.1 M potassium phosphate buffer (pH 7.4). Peroxynitrite solution in 0.1 M NaOH was prepared by the method of Keith and Powell (Keith, W. G. & Powell, R. E.; Kinetics of decomposition of peroxynitrous acid; J. Chem. Soc. A, 1969, 1, 90), and its concentration in the stock solutions used was estimated by using an extinction coefficient of 1670 cm^−1 (mol/L)^−1 at 302 nm (Hughes and Nicklin; The chemistry of pernitrites. Part I. Kinetics of decomposition of pernitrious acid; J. Chem. Soc. A, 1968, 2, 450-452). Peroxynitrite stock solution was added into the solution of Compound 30 to provide various final concentrations. Fluorescence spectra of the solutions were measured after 5 minutes under the same conditions as mentioned above.

Data set [3] concerns Murine J744.1 macrophages. The experiment in a line: Cell assay: detection of peroxynitrite in living cells by fluorescent microscopy. It is filed as cell-based. Here is the method: (§1) Murine J744.1 macrophages (ATCC, USA) were used to investigate the potential of Compound 22 (acetate form of Compound 10) for the detection of peroxynitrite in living cells. J744.1 macrophages were cultured in Dulbecco's Modified Eagle's Medium (DMEM) (Gibco) containing 10% heat-inactivated fetal bovine serum (Gibco) supplemented with 100 U/ml of penicillin and 100 μg/ml streptomycin at 37° C., 5% CO2. They were subcultured by scraping and seeded on six-well plates according to manufacture's instruction. The growth medium was changed every two to three days. Cells were grown to confluence prior to experiment. Murine J744.1 macrophages were incubated with Compound 22 (20 μM) for 1 hr and then washed three times with PBS buffer.
as §1, with “12 and 12a” for “22 (acetate form of Compound 10)”, “12 or 12a” for “22”, “buffer. […] The fluorescence was induced after treatment with LPS (lipopolysaccharide, 1 μg/ml) for 4 hrs (FIG. 9D and FIG. 10B).” for “buffer.”

In the case of `CN(c1ccc(CCC(=O)C(F)(F)F)cc1)c1cc2c(cc1Cl)C1(OC(=O)c3ccccc31)c1cc(Cl)c(O)cc1O2` (stereo not shown) [Compound 10], the “fluorescence of the probe itself” value in data set [1] (10 μM, 0.1 M phosphate buffer pH 7.4, excitation 520 nm) is “non-fluorescent”. The “fluorescence intensity at 541 nm with increasing concentration of peroxynitrite” value in data set [2] (10 μM probe, 0.1 M potassium phosphate buffer pH 7.4) was “increases linearly”. The “fluorescence intensity after the addition of peroxynitrite” value in data set [2] (10 μM probe, 0.1 M potassium phosphate buffer pH 7.4, measured after 5 minutes, excitation 520 nm) is “increase significantly”.

For the compound `CN(c1ccc(O)cc1)c1ccc2c(c1)Oc1cc(O)ccc1C21OC(=O)c2ccccc21` (stereo not shown) [Compound 12], the “fluorescence of the probe itself” value in data set [1] (1 μM, 0.1 M phosphate buffer pH 7.4, excitation 515 nm) is “non-fluorescent”. For the same compound, the “fluorescence intensity at 535 nm with increasing concentration of peroxynitrite” value in data set [2] (1 μM probe, 0.1 M potassium phosphate buffer pH 7.4, data not shown) is “increases linearly”. Further, the “fluorescence intensity after the addition of peroxynitrite” value in data set [2] (1 μM probe, peroxynitrite 0-7 μM, 0.1 M potassium phosphate buffer pH 7.4, after 5 minutes, excitation 515 nm) is listed as “increase significantly”. In addition, the “fluorescence after treatment with LPS” value in data set [3] (20 μM probe 1 hr, LPS 1 μg/ml for 4 hrs) is “induced”. The subcellular localization entry in data set [3] (J744.1 macrophages) was “may selectively localize in mitochondrials”. Also, the “fluorescence observed in the absence of stimulants” value in data set [3] (J744.1 macrophages incubated with 20 μM probe for 1 hr) is reported as “very weak fluorescence”. Moreover, in data set [3] (LPS-stimulated J744.1 macrophages, 20 μM), the “colocalization with mitochondrial dye MitoTracker Red CMXRos” value is given as “colocalized”.
